These results are taken from patent US9902709B2, “Polysubstituted pyridine compound, preparation method, use and pharmaceutical composition” (PEKING UNIVERSITY FOUNDER GROUP CO., LTD., priority 2014, dated 2018).

Test [1] deals with VEGFR2 (Homo sapiens (Human), UniProt P35968). As to the kind of experiment: Inhibitory activity of VEGFR2 kinase (HTRF KinEASE-TK kit). The test is classed as biochemical. The following applies: for IC50: ATP 5 μM, 20 minutes, room temperature; for IC50 value as fold of that of Comparative compound 2 / IC50 value as fold of that of Sorafenib (free base): ratio of IC50. How it is done: HTRF®KinEASE™-TK kit (Cat.62TKOPEC, Cisbio);
Chain of VEGFR2 (P35968 20-1356): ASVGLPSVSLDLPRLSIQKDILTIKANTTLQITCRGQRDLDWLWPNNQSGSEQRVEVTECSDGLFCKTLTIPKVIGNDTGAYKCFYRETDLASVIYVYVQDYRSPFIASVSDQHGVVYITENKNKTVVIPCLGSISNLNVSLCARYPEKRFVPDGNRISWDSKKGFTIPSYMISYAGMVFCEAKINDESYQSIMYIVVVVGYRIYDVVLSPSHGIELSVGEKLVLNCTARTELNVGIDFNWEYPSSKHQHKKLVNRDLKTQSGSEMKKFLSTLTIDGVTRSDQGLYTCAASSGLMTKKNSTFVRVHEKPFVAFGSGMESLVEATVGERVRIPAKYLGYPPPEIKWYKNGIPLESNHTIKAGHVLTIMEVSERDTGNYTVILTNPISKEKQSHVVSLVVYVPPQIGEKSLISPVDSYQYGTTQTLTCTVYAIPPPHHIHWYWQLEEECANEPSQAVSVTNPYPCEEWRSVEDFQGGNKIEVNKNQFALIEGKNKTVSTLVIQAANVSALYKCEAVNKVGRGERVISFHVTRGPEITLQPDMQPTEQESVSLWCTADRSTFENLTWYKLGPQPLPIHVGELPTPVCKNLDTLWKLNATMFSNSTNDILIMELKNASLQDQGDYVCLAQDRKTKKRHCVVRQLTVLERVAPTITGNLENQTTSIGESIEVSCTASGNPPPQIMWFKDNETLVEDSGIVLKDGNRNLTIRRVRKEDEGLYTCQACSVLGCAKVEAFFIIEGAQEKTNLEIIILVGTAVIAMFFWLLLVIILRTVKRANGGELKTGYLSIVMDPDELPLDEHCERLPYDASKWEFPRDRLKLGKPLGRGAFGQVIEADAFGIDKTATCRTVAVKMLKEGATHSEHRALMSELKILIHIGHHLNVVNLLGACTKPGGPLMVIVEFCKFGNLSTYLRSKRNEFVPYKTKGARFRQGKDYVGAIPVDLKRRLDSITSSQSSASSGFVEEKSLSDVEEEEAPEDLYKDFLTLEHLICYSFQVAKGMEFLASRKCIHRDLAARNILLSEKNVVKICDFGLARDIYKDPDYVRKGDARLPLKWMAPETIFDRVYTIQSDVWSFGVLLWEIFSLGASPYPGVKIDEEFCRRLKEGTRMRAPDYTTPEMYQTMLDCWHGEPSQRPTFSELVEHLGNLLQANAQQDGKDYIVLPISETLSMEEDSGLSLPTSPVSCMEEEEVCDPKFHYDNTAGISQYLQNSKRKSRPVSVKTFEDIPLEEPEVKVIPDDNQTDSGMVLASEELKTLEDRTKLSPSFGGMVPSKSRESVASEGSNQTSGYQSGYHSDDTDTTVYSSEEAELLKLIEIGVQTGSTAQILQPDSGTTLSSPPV
VEGFR2 (Cat: k2643, Sigma);
2.1 Preparation of VEGFR2 Kinase Reagent
1× kinase buffer: 1 mL 1× kinase buffer contained 200 μL 5× kinase buffer (Invitrogen), 5 μL, 1M MgCl2, 1 μL 1M DTT, 1 μL 1M MnCl2, and 793 μL ddH2O;
5×TK substrate-biotin and ATP working fluid: as the concentrations of TK substrate-biotin and ATP, please refer to Table 1. TK substrate-biotin and ATP were diluted with 1× kinase buffer to 5 folds of the reaction concentrations;
5× kinase working fluid: as the concentration of VEGFR2 kinase, please refer to Table 1. 5× kinase working fluid was prepared with 1× Kinase buffer;
4× Sa-XL665 working fluid: as the concentration of Sa-XL665 (Cisbio) in the reaction, please refer to Table 1. The 4× Sa-XL665 working fluid was prepared with assay buffer (Cisbio);
4×TK Ab-cryptate working fluid: TK Ab-Cryptate (Cisbio) was 100-fold diluted with assay buffer (Cisbio), as working fluid;
Experimental Procedure of HTRF KinEASE TK Kit
After all the reagents were prepared as described above, the reagents except for enzymes were equilibrated to room temperature, then adding samples were performed.
TK substrate-biotin, ATP, VEGFR2 kinase and a compound at a certain concentration were reacted in 1× kinase buffer at room temperature for 20 minutes. […] To all the reaction wells, 5 μl 4× Sa-XL665 working fluid and 5 μl 4×TK Ab-cryptate working fluid were added. After reacting at room temperature for 1 hours, fluorescence signal (excited at 320 nm, emitted at 665 nm, 615 nm) was detected by ENVISION detector (Perkinelmer). Based on the full-active well and the background signal well, the inhibition rate for each well was calculated, and the average value was used for duplicate wells. The half maximal inhibitory concentration (IC50) for each test compound was fitted by professional software Graphpad PRISM 5.0.
2.3 Data Analysis Emission light ratio (ER)=665 nm emission signal/615 nm emission signal Inhibition rate=(ERpositive−ERsample)/(ERpositive−ERnegative)*100%
HTRF KinEASE TK kit was used to determine the IC50 value of a compound for kinase VEGFR2. The final concentration of the compound started from 100 μM, and 4-fold gradient dilution was carried out to provide 10 concentrations. Duplicate wells were used for each concentration. The final concentration of DMSO was controlled to 1% in the reaction system.

Test [2] deals with human renal cancer 786-O transplantation. As to the kind of experiment: Effect on tumor weight of human renal cancer 786-O transplantation nude mice (Comparative Experimental Example 1). It counts as in vivo. The following applies: QD × 14 days. From the text: Comparative Experimental Example 1
The well grown 786-O solid tumor was cut into a mass of an average volume of about 1 mm^3 under aseptic conditions, and was used to inoculate nude mouse at axillary cavity of right forelimb subcutaneously via a trocar. The tumor growth state was observed regularly until the tumor grew into a volume of 250˜550 mm^3.
Animals with tumors of a too large or too small volume and an irregular shape were discarded. Tumor-bearing mice with a tumor volume of 250˜550 mm^3 in a good state were selected, 48 mice in total, and were divided into 6 groups, which were 1 solvent control group, 3 positive control groups, and 2 test sample groups. Both the positive control group and the test sample group were administered intragastrically once a day; the solvent control group was administered with 12.5% ethanol & 12.5% water solution of polyoxyethylene castor oil once a day; intragastrical volume was 10 mL/kg.
(§1) In the period of administration, tumor diameter was measured twice every week, tumor volume was calculated, and animal body weight was recorded. Animal state was observed when administered, and abnormal state was recorded.
Animal was sacrificed with CO2, and tumor was peeled off, weighed, and photographed. Animal was subjected to gross anatomy, and organs were observed by eyes to find if they were normal or not.
(§2) Observation Indexes: Tumor weight inhibiting rate (IR)=(WC−WT)/WC
Wherein WC and WT represented the average tumor weight of solvent control group and the average tumor weight of drug administration group, respectively.
Experimental data was subjected to calculation and relevant statistic processing by Microsoft Office Excel 2003 software. Unless otherwise specified, data was represented as Mean±Standard Error (Mean±S.E), and t-test is used in the comparison between two groups.

Test [3] concerns human colon cancer HCT-116 transplantation. As to the kind of experiment: Effect on tumor weight of human colon cancer HCT-116 transplantation nude mice (Comparative Experiment Example 2). The following applies: QD × 17 day. It counts as in vivo.
Source text: Comparative Experiment Example 2
Under aseptic conditions, the well grown human HCT-116 cell suspension in logarithmic growth phase was used to inoculate nude mouse at axillary cavity of right forelimb subcutaneously via an injector. The tumor growth state was observed regularly until the tumor grew to a volume of 100˜300 mm^3.
48 Tumor-bearing mice with a tumor volume of 100˜300 mm^3 were selected and divided into 6 groups, which were 1 solvent control group, 3 positive control groups, and 2 test sample groups. Both the positive control group and the test sample group were administered intragastrically once a day; the solvent control group was administered with 12.5% ethanol & 12.5% water solution of polyoxyethylene castor oil once a day; intragastrical volume was 10 mL/kg.
as §1
Animal was sacrificed with CO2, and tumor mass was peeled off, weighed, and photographed. After photographed, each tumor mass was cut into two parts, wherein one was stored in 4% paraformaldehyde, and the other was packaged into a freezing tube, and frozen in liquid nitrogen. Animal was subjected to gross anatomy, and organs were observed by eyes to find if they were normal or not.
as §2
wherein WC and WT represented the average tumor weight of solvent control group and the average tumor weight of drug administration group, respectively.
Experimental data was subjected to calculation and relevant statistic processing by Microsoft Office Excel 2003 software. Unless otherwise specified, data was represented as Mean±Standard Error (Mean±S.E.), and t-test is used in the comparison between two groups.

Regarding `Cn1cc(-c2cc(Oc3ccc(NC(=O)Nc4ccc(Cl)c(C(F)(F)F)c4)cc3)c(Cl)cn2)cn1` [Comparative example 4, 1-(4-chloro-3-(trifluoromethyl)phenyl)-3-(4-(2-(1-methyl-pyrazol-4-yl)-5-chloro-pyridin-4-yl-oxy)phenyl)urea, reference compound], in test [1], the IC50 is 20500 nM.
In test [1], `COc1c(Oc2ccc(NC(=O)Nc3ccc(Cl)c(C(F)(F)F)c3)cc2)ccnc1-c1cnn(C)c1` [Example 8, 1-(4-chloro-3-(trifluoromethyl)phenyl)-3-(4-(3-methoxy-2-(1-methyl-pyrazol-4-yl)-pyridin-4-yl-oxy)phenyl)urea] displayed an IC50 of 417 nM. Compared with the last compound, the IC50 is about 49-fold lower.
Take `CCN(CC)CCNC(=O)c1c(C)[nH]c(/C=C2\C(=O)Nc3ccc(F)cc32)c1C` [Sunitinib]: in test [2] (40 mg/kg po), the “Tumor weight Mean ± S.E” value was 0.1825 ± 0.0213 g and the Tumor-inhibiting rate was 80.49%. Besides, in test [3] (40 mg/kg Ig), the “Tumor weight Mean ± S.E” value is 0.3890 ± 0.0453 g and the Tumor-inhibiting rate amounted to 60.80%.
Compound `Cc1c(Oc2ccc(NC(=O)Nc3ccc(Cl)c(C(F)(F)F)c3)cc2)ccnc1-c1cnn(C)c1` [Example 5, 1-(4-chloro-3-(trifluoromethyl)phenyl)-3-(4-(3-methyl-2-(1-methyl-pyrazol-4-yl)-pyridin-4-yl-oxy)phenyl)urea] returned a 50% inhibitory concentration (IC50) in test [1] of 317 nM. This counts as sub-micromolar.
As for `Cn1cc(-c2cc(Oc3ccc(NC(=O)Nc4ccc(Cl)c(C(F)(F)F)c4)cc3)ccn2)cn1` [Comparative example 2, 1-(4-chloro-3-(trifluoromethyl)phenyl)-3-(4-(2-(1-methyl-pyrazol-4-yl)-pyridin-4-yl-oxy)phenyl)urea], the “Tumor weight Mean ± S.E” value was 0.1892 ± 0.0253 g in test [2] (20 mg/kg po, sorafenib as p-toluenesulfonate, FD-1210005 free form); 0.1897 ± 0.0192 g in test [2] (60 mg/kg po, sorafenib as p-toluenesulfonate, FD-1210005 free form); 0.3283 ± 0.0404 g in test [3] (20 mg/kg Ig, sorafenib as p-toluenesulfonate, FD-1210005 free form); 0.2829 ± 0.0309 g in test [3] (60 mg/kg Ig, sorafenib as p-toluenesulfonate, FD-1210005 free form). The Tumor-inhibiting rate came to 80% in test [2] (20 mg/kg po, sorafenib as p-toluenesulfonate, FD-1210005 free form, listed as Comparative compound 2); 79.78% in test [2] (20 mg/kg po, sorafenib as p-toluenesulfonate, FD-1210005 free form, listed as FD-1210005); 80% in test [2] (60 mg/kg po, sorafenib as p-toluenesulfonate, FD-1210005 free form, listed as Comparative compound 2); 79.73% in test [2] (60 mg/kg po, sorafenib as p-toluenesulfonate, FD-1210005 free form, listed as FD-1210005); 67% in test [3] (20 mg/kg Ig, sorafenib as p-toluenesulfonate, FD-1210005 free form, listed as Comparative compound 2); 66.91% in test [3] (20 mg/kg Ig, sorafenib as p-toluenesulfonate, FD-1210005 free form, listed as FD-1210005). In addition, the Tumor-inhibiting rate in test [3] (60 mg/kg Ig, sorafenib as p-toluenesulfonate, FD-1210005 free form, listed as Comparative compound 2) turned out to be 71%; in test [3] (60 mg/kg Ig, sorafenib as p-toluenesulfonate, FD-1210005 free form, listed as FD-1210005), 71.49%. In test [1], the concentration for half-maximal inhibition (IC50) was 188 nM.
In test [1], `Cn1cc(-c2nccc(Oc3ccc(NC(=O)Nc4ccc(Cl)c(C(F)(F)F)c4)cc3)c2C#N)cn1` [Example 4, 1-(4-chloro-3-(trifluoromethyl)phenyl)-3-(4-(3-cyano-2-(1-methyl-pyrazol-4-yl)-pyridin-4-yl-oxy)phenyl)urea] yielded an IC50 of 68.5 nM. For the same compound, in test [1] (VEGFR2 kinase), the “inhibitory activity as fold of that of Comparative compound 2” value was determined as 2.7 fold, the “inhibitory activity as fold of that of Sorafenib” value came out at 1.3 fold, the “IC50 value as fold of that of Comparative compound 2” value was found to be 0.36 fold and the “IC50 value as fold of that of Sorafenib (free base)” value is listed as 0.75 fold.
With `Cn1cc(-c2nccc(Oc3ccc(NC(=O)Nc4ccc(Cl)c(C(F)(F)F)c4)cc3)c2N)cn1` [Example 6, 1-(4-chloro-3-(trifluoromethyl)phenyl)-3-(4-(3-amino-2-(1-methyl-pyrazol-4-yl)-pyridin-4-yl-oxy)phenyl)urea], the midpoint of inhibition in test [1], the IC50, lay at 215 nM.
For the compound `Cn1cc(-c2nccc(Oc3ccc(NC(=O)Nc4ccc(Cl)c(C(F)(F)F)c4)c(F)c3)c2Cl)cn1` [Example 3, 1-(4-chloro-3-(trifluoromethyl)phenyl)-3-(4-(3-chloro-2-(1-methyl-pyrazol-4-yl)-pyridin-4-yl-oxy)-2-fluorophenyl)urea], the midpoint of inhibition in test [1], the IC50, lay at 222 nM. For the same compound, in test [1] (VEGFR2 kinase), the “inhibitory activity as fold of that of Sorafenib” value is on record as 1.5 fold, the “IC50 value as fold of that of Comparative compound 2” value is “comparable” and the “IC50 value as fold of that of Sorafenib (free base)” value was found to be 2.5 fold.
In the case of `CNc1c(Oc2ccc(NC(=O)Nc3ccc(Cl)c(C(F)(F)F)c3)cc2)ccnc1-c1cnn(C)c1` [Example 7, 1-(4-chloro-3-(trifluoromethyl)phenyl)-3-(4-(3-methylamino-2-(1-methyl-pyrazol-4-yl)-pyridin-4-yl-oxy)phenyl)urea], the IC50 in test [1] was determined as 656 nM.
As to `Cn1cc(-c2cc(Oc3ccc(NC(=O)Nc4ccc(Cl)c(C(F)(F)F)c4)cc3)c(F)cn2)cn1` [Comparative example 3, 1-(4-chloro-3-(trifluoromethyl)phenyl)-3-(4-(2-(1-methyl-pyrazol-4-yl)-5-fluoro-pyridin-4-yl-oxy)phenyl)urea, reference compound], 437 nM corresponded to half-maximal inhibition in test [1] (IC50). Against the preceding compound, the IC50 is about 1.5-fold lower.
Take `COc1cc(Oc2ccc(NC(=O)Nc3ccc(Cl)c(C(F)(F)F)c3)cc2)cc(-c2cnn(C)c2)n1` [Comparative example 5, 1-(4-chloro-3-(trifluoromethyl)phenyl)-3-(4-(2-(1-methyl-pyrazol-4-yl)-6-methoxy-pyridin-4-yl-oxy)phenyl)urea, reference compound]: it took 2390 nM to reach half-maximal inhibition in test [1] (IC50).
